This is an account of results in ChEMBL document CHEMBL1201862, “PubChem BioAssay data set” (2004).

Common to all, as to experiment: NCI anticancer screen, dose series, 48 h
The subject of assay [1] is HL-60.
Assay [2] deals with SW-620.
For assay [3], the system named is ACHN.
Assay [4] has as its system SR.
Assay [5] deals with SF-268.
Assay [6] has as its system KM12.
Assay [7] deals with 786-0.
Assay [8] concerns OVCAR-5.
The subject of assay [9] is Hs-578T.
Assay [10] relates to MDA-MB-231.
In assay [11] the test system is SNB-75.
In assay [12] the test system is A498.
The test system of assay [13] is M14.
Assay [14] relates to OVCAR-3.
The subject of assay [15] is UACC-257.
Assay [16] concerns HT-29.
The test system of assay [17] is NCI/ADR-RES.
Assay [18] relates to MOLT-4.
Assay [19] relates to SK-MEL-2.

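Step 1: Grow cells in 96-well plates. Step 2: Expose to compound for 48 hours at 5 concentrations. Step 3: Interpolate endpoints linearly; if unreached, use highest concentration. GI50 marks 50% less growth.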 The source made the active and inactive calls. Cut-off read from the data, not from the text of the source: active = GI50 up to about 1.1 µM and inactive = higher.

`C[Si](C)(C)C#Cc1cc(-c2nc3ccccc3s2)ccc1N`: the GI50 in assay [1] is 23.3 µM (inactive); in [2], 18.1 µM (inactive); in assay [3], 15.7 µM (inactive); in assay [4], 26.4 µM (inactive); in assay [5], 16.8 µM (inactive); in [6], 15.2 µM (inactive). The GI50 is 17 µM (inactive) in [7]; 16.5 µM (inactive) in assay [8]; 20.8 µM (inactive) in assay [9]; 17.2 µM (inactive) in assay [10]; 12.7 µM (inactive) in assay [11]; 19.9 µM (inactive) in assay [12]. In addition, the GI50 in assay [13] is 16.5 µM (inactive); in [14] it was 17.3 µM (inactive); in assay [15] it was 19.5 µM (inactive); in [16], 20.1 µM (inactive); in [17] it was 17.5 µM (inactive); in assay [18], 29.2 µM (inactive).
As to `CC1C(C)(C)C23CC12C1(OCCO1)C3Br` (configuration not stated), the GI50 in assay [1], in [2], in assay [3], in assay [4], in [5] and in assay [6] was > 100 µM (inactive) throughout. Moreover, the GI50 in [7], in assay [8], in [9], in [10], in [11] and in assay [12] was > 100 µM (inactive) throughout. Moreover, the GI50 in [13], in assay [14], in assay [15], in [16], in [17] and in assay [18] was > 100 µM (inactive) throughout.
As to `O=C1Nc2ccccc2/C1=C\c1c(Cl)[nH]c2ccccc12`, the GI50 in [1] is 0.251 µM (active); in assay [19], 1.11 µM (active); in [2], 0.516 µM (active); in assay [3] it was 1.3 µM (inactive); in assay [4], 0.292 µM (active); in assay [5], 1.12 µM (active). Besides, the GI50 in assay [6] was 0.397 µM (active); in assay [7], 0.935 µM (active); in [8] it was 1.44 µM (inactive); in assay [9], 0.409 µM (active); in assay [10], 1.45 µM (inactive); in [12], 1.15 µM (inactive). The GI50 was 0.873 µM (active) in assay [13]; 0.592 µM (active) in [14]; 1.59 µM (inactive) in assay [15]; 0.222 µM (active) in assay [16]; 0.355 µM (active) in [17]; 0.522 µM (active) in assay [18].
As to `CCNC(=O)c1c(O)nc2ccccc2c1O`, the GI50 in assay [1] was 35.6 µM (inactive); in assay [2], 43.1 µM (inactive); in assay [3] it was 40.5 µM (inactive); in assay [4], 25.5 µM (inactive); in [5], 63.4 µM (inactive); in assay [6], 97.7 µM (inactive). Besides, the GI50 is 67.3 µM (inactive) in assay [7]; 42.4 µM (inactive) in [8]; 40.5 µM (inactive) in assay [9]; 67.5 µM (inactive) in assay [10]; > 100 µM (inactive) in assay [11]; > 100 µM (inactive) in [12]. Besides, the GI50 in [14] is 61.9 µM (inactive); in assay [15] it was > 100 µM (inactive); in [16], 46.2 µM (inactive); in assay [17], > 100 µM (inactive); in assay [18] it was 42 µM (inactive).
As for `CC(C)(C)N1NC1C1NN1C(C)(C)C` (configuration not stated), the GI50 in assay [19], in [2], in assay [3], in [4], in [5] and in assay [6] was > 100 µM (inactive) throughout. Besides, the GI50 in assay [7], in [8], in assay [9], in [10], in [11] and in assay [12] was > 100 µM (inactive) in each case. The GI50 in [13], in [14], in assay [15], in assay [16], in assay [17] and in assay [18] was > 100 µM (inactive) each time.
`CCC(Nc1ncnc2nc[nH]c12)C(=O)O` (configuration not stated): the GI50 in assay [1], in [19], in [2], in assay [3], in assay [4] and in [5] was > 100 µM (inactive) throughout. Further, the GI50 in assay [6] was > 100 µM (inactive); in assay [7], > 100 µM (inactive); in assay [8] it was > 100 µM (inactive); in [9] it was > 100 µM (inactive); in assay [10], > 100 µM (inactive); in assay [11] it was 26.2 µM (inactive). For the same molecule, the GI50 in [12], in assay [13], in [14], in assay [15], in assay [16] and in assay [17] was > 100 µM (inactive) throughout.
As for `COc1ccc(/N=N/c2c(C)c(C#N)c(=S)n(C3OC(CO)C(O)C(O)C3O)c2C)cc1` (configuration not stated), the GI50 is 38.3 µM (inactive) in assay [1]; 71.3 µM (inactive) in [19]; 44.1 µM (inactive) in [2]; 36.4 µM (inactive) in assay [3]; 23.4 µM (inactive) in assay [4]; 45.9 µM (inactive) in assay [5]. Besides, the GI50 in assay [6] is 73.1 µM (inactive); in assay [7], 44.2 µM (inactive); in assay [8] it was > 100 µM (inactive); in assay [9], 41.4 µM (inactive); in [10], 62.8 µM (inactive); in [11], 83.6 µM (inactive). Moreover, the GI50 was 26.7 µM (inactive) in assay [13]; 34.4 µM (inactive) in assay [14]; 71.9 µM (inactive) in [15]; 37.9 µM (inactive) in [16]; > 100 µM (inactive) in assay [17]; 21.8 µM (inactive) in assay [18].
On to `Nc1ccc(-c2nnc(-c3c(Cl)c(Cl)c(Cl)c(Cl)c3-c3nc4cc(C(=O)c5ccccc5)ccc4[nH]3)o2)cc1`, for which the GI50 in assay [19] was 24.5 µM (inactive); in [2], 29.5 µM (inactive); in [3], 41.7 µM (inactive); in assay [4], 5.16 µM (inactive); in assay [5] it was 28.5 µM (inactive); in assay [6], 27.9 µM (inactive). For the same molecule, the GI50 is 17.1 µM (inactive) in [7]; 37.9 µM (inactive) in assay [8]; 28 µM (inactive) in [9]; 19.3 µM (inactive) in [10]; 24 µM (inactive) in assay [11]; 18.5 µM (inactive) in assay [12]. The GI50 in [13] was 16.6 µM (inactive); in assay [14], 21 µM (inactive); in assay [15], 48.4 µM (inactive); in assay [16] it was 20.5 µM (inactive); in assay [17], 16 µM (inactive); in [18], 15.9 µM (inactive).
In the case of `CCOC(=O)/C=C(\C(=O)OCC)n1ccc(N)nc1=O`, the GI50 in assay [1] was 26.6 µM (inactive); in assay [19], > 100 µM (inactive); in assay [2], 56.4 µM (inactive); in assay [3], > 100 µM (inactive); in assay [4], 87.7 µM (inactive); in [5], > 99.8 µM (inactive). The GI50 was > 100 µM (inactive) in [6]; > 100 µM (inactive) in assay [7]; 33 µM (inactive) in assay [8]; > 100 µM (inactive) in assay [9]; > 100 µM (inactive) in [10]; > 100 µM (inactive) in assay [11]. In addition, the GI50 is > 100 µM (inactive) in [13]; > 100 µM (inactive) in [14]; > 100 µM (inactive) in assay [15]; 52.2 µM (inactive) in assay [16]; > 100 µM (inactive) in assay [17]; 97.1 µM (inactive) in [18].
Consider `Cn1c(=O)cc(Nc2ccc(N)cc2)[nH]c1=O`, for which the GI50 in assay [19], in assay [2], in [3], in assay [4], in assay [5] and in assay [6] was > 100 µM (inactive) each time. Moreover, the GI50 in assay [7], in assay [8], in assay [9], in [10], in assay [11] and in assay [12] was > 100 µM (inactive) in each case. Also, the GI50 in [13], in assay [14], in assay [15], in [16], in assay [17] and in assay [18] was > 100 µM (inactive) throughout.
Take `O=C1C([N-]S(=O)(=O)c2ccccc2)=C([n+]2ccc(Cc3ccccc3)cc2)C(=O)c2ccccc21`: the GI50 in assay [1] is 1.38 µM (inactive); in [19] it was 1.5 µM (inactive); in [2], 0.641 µM (active); in [3], 1.79 µM (inactive); in assay [4] it was 2.59 µM (inactive); in assay [5], 1.71 µM (inactive). Also, the GI50 in assay [6] was 1.89 µM (inactive); in assay [7], 1.73 µM (inactive); in assay [8] it was 2.03 µM (inactive); in [9], 2.19 µM (inactive); in assay [10] it was 2.56 µM (inactive); in [11] it was 1.31 µM (inactive). For the same molecule, the GI50 in assay [13] is 1.32 µM (inactive); in assay [14], 0.142 µM (active); in [15], 1.22 µM (inactive); in assay [16], 0.263 µM (active); in [17], 2.83 µM (inactive); in assay [18] it was 1.81 µM (inactive).
